Where “and” joins values, the source holds several entries; their conditions need not be identical. Equal entries are not always repeated.
Assays:
human PDE-like enzyme = experiment: Expression of human PDE-like enzyme by Western blotting in oligonucleotide-treated HCT116 cells; type: cell-based; details: HCT116, oligonucleotide added for seven days
Method: The cell line used for testing is the human colon cancer cell line HCT116. Cells are cultured in RPMI-1640 with 10-15% fetal calf serum at a concentration of 10,000 cells per milliliter in a volume of 0.5 ml and kept at 37° C. in a 95% air/5%CO2 atmosphere.
Phosphorothioate […] are synthesized on an Applied Biosystems Model 380B DNA synthesizer using phosphoroamidite chemistry. A sequence of 24 bases complementary to the nucleotides at position 1 to 24 of SEQ ID NO: 1 is used as the test oligonucleotide. As a control, another (random) sequence is used: 5′-TCAACTGACTAGATGTACATGGAC-3′. Following assembly and deprotection, oligonucleotides are ethanol-precipitated twice, dried, and suspended in phosphate buffered saline at the desired concentration. Purity of the oligonucleotides is tested by capillary gel electrophoresis and ion exchange HPLC. The purified oligonucleotides are added to the culture medium at a concentration of […] once per day for seven days.
This effect is not observed with the control oligonucleotide. After 3 to 7 days, the number of cells in the cultures is counted using an automatic cell counter. The number of cells in cultures treated with the test oligonucleotide (expressed as 100%) is compared with the number of cells in cultures treated with the control oligonucleotide.

PDE11A4 [1] = molecular target: T1, PDE11A4 (Homo sapiens, UniProt Q9HCR9); experiment: Lineweaver-Burk analysis of PDE11A4 SPA to determine Km for cGMP; type: biochemical; details: 1 ng PDE11A4, various cGMP concentrations, RT, 0-90 min
T1 construct: His-tag (N); made in house; host or cells: Sf21 insect cells (baculovirus)
Method: FIG. 17. Lineweaver-Burk analysis to determine Km values for cGMP. Reaction mixtures (20 μl/well) containing 1 ng PDE11A4 and various concentrations of cGMP (1.25 mCi/μmol) were incubated at RT. At various time points between 0 and 90 min the reactions were stopped with 30 μl of 18 mM ZnSO4 containing 0.15 mg Yttrium SPA PDE beads. The assay plates were sealed, allowed to settle for 30 min at RT, and counted on a TopCount NTX microscintillation counter (Packard). Reactions were run in triplicate. A, Time courses of PDE11A4 reaction with various concentration of cGMP. B, Lineweaver-Burk analysis. The Km value for cGMP was determined as 0.4 μM.
Expression of recombinant PDE11A4 was examined by baculovirus expression system in Sf21 cells with or without His-tag at the N-terminus. Since both expression level and enzyme activity of the His-tagged PDE11A4 (His-PDE11A4) was much higher than those of non-tagged enzyme (FIG. 15), His-PDE11A4 was selected for further use. The maximum expression level and activity were obtained from the cells cultured 24 to 48 h after transfection. The His-PDE11A4 was successfully purified by Ni^2+-chelating column chromatography (FIG. 16). The assay was carried out in scintillation proximity assay (SPA) using cGMP as substrate. Km value for cGMP was determined to be 0.4 μM (FIG. 17). […]

PDE11A4 [2] = molecular target: T1, PDE11A4; experiment: PDE11A4 scintillation proximity assay (SPA), inhibition of [3H]-cGMP hydrolysis; type: biochemical; details: 0.4 μM [3H]-cGMP, 1 ng PDE11A4, RT 1 h, His-tagged recombinant enzyme
Method: Effect of IBMX and dipyridamole was tested. Assays were performed in 384-well white plates in 20 μl containing the indicated concentration of inhibitor, 0.4 μM [^3H]-cGMP (0.025 μCi/well) and 1 ng PDE11A4 in 50 mM Tris-HCl, pH 7.5, 8.3 mM MgCl2, 1.7 mM EGTA, 0.5 mg/ml BSA. Reaction mixtures were incubated at RT for 1 h, then quenched with 30 μl of 18 mM ZnSO4 containing 0.15 mg Yttrium SPA PDE beads. The assay plates were sealed, allowed to settle for 30 min at RT, and counted on a TopCount NTX microscintillation counter (Packard). Reactions were run in triplicate.

T1 sequence (Q9HCR9 whole entry): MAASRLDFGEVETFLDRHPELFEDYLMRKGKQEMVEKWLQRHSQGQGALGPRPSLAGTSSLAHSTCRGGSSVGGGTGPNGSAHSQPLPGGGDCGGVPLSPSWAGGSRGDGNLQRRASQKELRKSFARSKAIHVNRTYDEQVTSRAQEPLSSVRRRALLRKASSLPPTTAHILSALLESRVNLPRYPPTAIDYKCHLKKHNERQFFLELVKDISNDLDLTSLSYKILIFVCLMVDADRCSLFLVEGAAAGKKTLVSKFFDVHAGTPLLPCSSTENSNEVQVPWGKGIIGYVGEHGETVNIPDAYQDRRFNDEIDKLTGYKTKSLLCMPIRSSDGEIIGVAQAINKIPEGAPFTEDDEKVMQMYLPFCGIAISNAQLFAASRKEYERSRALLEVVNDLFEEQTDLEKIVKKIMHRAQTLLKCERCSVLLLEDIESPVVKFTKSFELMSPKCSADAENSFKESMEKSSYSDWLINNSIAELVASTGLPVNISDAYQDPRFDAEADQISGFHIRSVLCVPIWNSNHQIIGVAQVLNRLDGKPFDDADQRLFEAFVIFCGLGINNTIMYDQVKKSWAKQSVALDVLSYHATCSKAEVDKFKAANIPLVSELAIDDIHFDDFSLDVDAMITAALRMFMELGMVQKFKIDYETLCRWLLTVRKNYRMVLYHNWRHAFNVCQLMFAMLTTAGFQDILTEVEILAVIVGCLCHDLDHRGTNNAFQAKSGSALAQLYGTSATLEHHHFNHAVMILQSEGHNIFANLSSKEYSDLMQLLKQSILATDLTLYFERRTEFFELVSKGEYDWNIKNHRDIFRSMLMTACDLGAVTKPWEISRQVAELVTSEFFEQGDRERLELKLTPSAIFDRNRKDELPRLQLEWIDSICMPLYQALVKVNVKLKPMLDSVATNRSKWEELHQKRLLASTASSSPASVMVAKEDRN

Compound: control oligonucleotide: control (random) sequence 5′-TCAACTGACTAGATGTACATGGAC-3′ (DNA TCAACTGACTAGATGTACATGGAC; chemistry not given here)
- expression of human PDE-like enzyme (Western blotting) (human PDE-like enzyme): not observed

Compound: Nc1nc2c(ncn2[C@@H]2O[C@@H]3COP(=O)(O)O[C@H]3[C@H]2O)c(=O)[nH]1 [cGMP]
- Km (PDE11A4 [1]): 0.4 µM

Compound: CC(C)Cn1c(=O)n(C)c(=O)c2[nH]cnc21 [IBMX]
- IC50 (PDE11A4 [2]): 41 µM and 41.3 µM

— patent publication US20020103120A1, “Regulation of human phosphodiesterase-like enzyme” (priority 2000, published 2002)
